Structures are written as SMILES.

Assay [1] addresses 3H-kainate, 3H-AMPA and/or 3H-glycine binding sites. As to the kind of experiment: Kainate, quisqualate (3H-AMPA) and glycine binding assays. Particulars: site(s) not specified per compound ('and/or'). The procedure:
The quisqualate binding assay was performed as described by T. Honore et al., Neuroscience Letters 54, 27-32 (1985).
The kainate binding assay was performed as described by T. Honore et al., Neuroscience Letters 65, 47-52 (1986).
The glycine binding assay was performed as described by W. Frost White et al., Journal of Neurochemistry 53(2), 503-512 (1989).

The subject of assay [2] is quisqualate-induced clonic seizures in male DBA/2 mice. As to the kind of experiment: Quisqualate-induced clonic seizures. It counts as in vivo. Particulars: Mus musculus, iv, quisqualate icv, test compound i.v. 5 min before, given as 'quisqualate or NMDA-induced convulsions', read-out: ED50, inhibition of quisqualate-induced convulsions. The procedure: Quisqualate given icv (intracerebroventricular) to DBA/2 mice induces clonic seizures which can be inhibited by both NMDA and non-NMDA receptor antagonists after i.v. administration.
Test compound was given i.v. 5 min before a 20 pg icv administration of quisqualate to 10 male DBA/2 mice (weighing 10-12 g) per dose. The number of mice experiencing clonic seizures within the next 2 min was noted. An ED50 value was calculated as the dose inhibiting 50% of the mice from having clonic seizures.

Assay [3] relates to NMDA-induced clonic seizures in male NMRI mice. As to the kind of experiment: NMDA-induced clonic seizures. The format is in vivo. Particulars: Mus musculus, iv, NMDA icv, test compound i.v. 5 min before, given as 'quisqualate or NMDA-induced convulsions', read-out: ED50, inhibition of NMDA-induced convulsions. The procedure:
NMDA give icv to NMRI mice induces clonic seizures which can be inhibited by NMDA receptor antagonists.
Test compound was given i.v. 5 min before a 0.5 μg icv administration of NMDA to 10 male NMRI mice per dose. The number of mice experiencing clonic seizures within the next 2 min was noted. An ED50 value was calculated as the dose inhibiting 50% of the mice from having clonic seizures.

For assay [4], the system named is ATPA-induced rigidity in female NMRI mice. As to the kind of experiment: ATPA-induced rigidity. The conditions noted are these: Mus musculus, 15 mg/kg ATPA i.v., test compound i.v. or p.o., read-out: ED50, inhibition of ATPA-induced rigidity. It counts as in vivo. The procedure: The selective quisqualate receptor agonist ATPA induces rigidity in female NMRI mice at doses between 3 and 15 mg/kg and clonic-tonic seizures and death, probably due to respiratory arrest, at doses between 15 and 40 mg/kg after intravenous (i.v.) administration.
ATPA ((RS)-α-amino-3-hydroxy-5-tert-butyl-4-isoxazolepropionic acid) was dissolved in distilled water and test compound was dissolved in a polyoxyl 40 hydrogenated castor oil (5% Cremophor RH™ 40 (BASF)).
Test compound was administered either i.v. 5, 30 or 120 min before or p.o. 30 min before an i.v. administration of 15 mg/kg of ATPA to 8 female NMRI mice per dose and the number of mice experiencing rigidity 5 min later was noted. An ED50 value was calculated from at least three doses of test compound as the dose inhibiting 50% of the mice from having rigidity.

The test system of assay [5] is cocaine-induced hypermotility in female NMRI mice. Briefly: Cocaine-induced hypermotility. The format is in vivo. The conditions noted are these: Mus musculus, po, administered orally, 25 mg/kg cocaine i.p., read-out: ED50, antagonism of cocaine-induced hypermotility. An excerpt: Quisqualate and kainate administered locally induce an increase in dopamine release in nucleus accumbens and nucleus caudatus accompanied by stereotype behaviour such as hyperlocomotion, rearing, sniffing and grooming. These effects can be inhibited by selective quisqualate antagonists administered locally by the micro-dialyses method.
Also the dopamine uptake inhibitor cocaine administered s.c. induce hypermotility which can be inhibited by an administration of the glutamate antagonist GDEE into nucleus accumbens.
Test compound was administered orally at doses of 0.1, 1, 10 and 30 mg/kg 30 min before the administration of 25 mg/kg cocaine i.p. to female NMRI mice and the locomotor activity of 2 mice per box was measured for the next 2 hours by use of 8 infrared photobeams per box. The mice had been adapted to the box for at least 16 hours to avoid exploratory motility (neophobia).

Compound `O=C1Nc2c(ccc3ccccc23)C1=NO` [1H-benz[g]indole-2,3-dione-3-oxime] came in with an IC50 in assay [1] of 10 to 100 µM.

Turning to `CCOC(=O)CN1C(=O)C(=NOC)c2cc([N+](=O)[O-])cc([N+](=O)[O-])c21` [5,7-dinitro-1-(ethoxycarbonylmethyl)-1H-indole-2,3-dione-3-(O-methyloxime)], the ED50 in assay [2], in assay [3] and in assay [4] was 0.1 to 10 mg/kg throughout.

With `CON=C1C(=O)N(C)c2c1cc([N+](=O)[O-])cc2[N+](=O)[O-]` [5,7-dinitro-1-methyl-1H-indole-2,3-dione-3-(O-methyloxime)], the ED50 in assay [2] fell in the range of 0.1 to 10 mg/kg; in assay [3], 0.1 to 10 mg/kg; in assay [5] it was 0.5 to 1 mg/kg; in assay [4], 0.1 to 10 mg/kg.

In assay [1], `CN1C(=O)C(=NO)c2cc([N+](=O)[O-])cc([N+](=O)[O-])c21` [5,7-dinitro-1-methyl-1H-indole-2,3-dione-3-oxime] had an IC50 of 10 to 100 µM.

`O=C1Nc2c(cc([N+](=O)[O-])cc2[N+](=O)[O-])C1=NO` [5,7-dinitro-1H-indole-2,3-dione-3-oxime] yielded an IC50 in assay [1] of 10 to 100 µM.

Turning to `CNS(=O)(=O)c1cc2c(c3c1CCCC3)NC(=O)C2=NO` [5-(N-methylsulphamoyl)-6,7,8,9-tetrahydro-1H-benz[g]indole-2,3-dione-3-oxime], the IC50 in assay [1] is 10 to 100 µM.

In turn, `O=C1Nc2c(cc(S(=O)(=O)NOCc3ccccc3)c3c2CCCC3)C1=NO` [5-(benzyloxysulphamoyl)-6,7,8,9-tetrahydro-1H-benz[g]indole-2,3-dione-3-oxime] returned an IC50 in assay [1] of 10 to 100 µM.

The compound `O=C1Nc2c(cc(Br)cc2[N+](=O)[O-])C1=NO` [5-bromo-7-nitro-1H-indole-2,3-dione-3-oxime] yielded an IC50 in assay [1] of 10 to 100 µM.

For `O=C1Nc2c(cc([N+](=O)[O-])c3c2CCCC3)C1=NO` [5-nitro-1H-6,7,8,9-tetrahydro-benz[g]indole-2,3-dione-3-oxime], the IC50 in assay [1] was in the range of 10 to 100 µM.

Consider `O=C1Nc2c(cc([N+](=O)[O-])c3ccccc23)C1=NO` [5-nitro-1H-benz[g]indole-2,3-dione-3-oxime], for which the IC50 in assay [1] was 10 to 100 µM.

In assay [1], `O=C1Nc2ccc([N+](=O)[O-])cc2C1=NO` [5-nitro-1H-indole-2,3-dione-3-oxime] showed an IC50 of 10 to 100 µM.

The IC50 is the concentration that gives 50% inhibition. A higher IC50 goes with lower potency. The term ED50 denotes the dose at which the effect has come halfway, by size or by number of responders.
